What was measured:
Candida albicans [1] = assay: Antifungal activity against Candida albicans ATCC 12983 at 15 ug in 6 mm disk after 10 hrs by disc-diffusion assay; type: functional; settings: ATCC 12983, 10 h, read-out: IZ
Candida parapsilosis [2] = assay: Antifungal activity against Candida parapsilosis ATCC 12969 at 15 ug in 6 mm disk after 10 hrs by disc-diffusion assay; type: functional; settings: Lodderomyces parapsilosis, ATCC 12969, 10 h; read-out: IZ
Nakaseomyces glabratus = assay: Antifungal activity against Candida glabrata NRRL Y-65 at 15 ug in 6 mm disk after 10 hrs by disc-diffusion assay; type: functional; settings: NRRL Y-65, 10 h, read-out: IZ
Candida tropicalis [3] = assay: Antifungal activity against Candida tropicalis ATCC 12968 at 15 ug in 6 mm disk after 10 hrs by disc-diffusion assay; type: functional; settings: ATCC 12968, 10 h, read-out: IZ
Pichia kudriavzevii [4] = assay: Antifungal activity against Candida krusei ATCC 27803 at 15 ug in 6 mm after 10 hrs by disc-diffusion assay; type: functional; settings: ATCC 27803, 10 h, read-out: IZ
Streptococcus pyogenes = assay: Antimicrobial activity against Streptococcus pyogenes at 100 ug/disk after 10 hrs by disc-diffusion assay; type: functional; settings: read-out: IZ
Staphylococcus aureus [5] = assay: Antimicrobial activity against Staphylococcus aureus ATCC 700787 at 100 ug/disk after 10 hrs by disc-diffusion assay; type: functional; settings: ATCC 700787, 10 h, read-out: IZ
Salmonella enterica = assay: Antimicrobial activity against Salmonella typhimurium at 100 ug/disk after 10 hrs by disc-diffusion assay; type: functional, Salmonella enterica subsp. enterica serovar Typhimurium; settings: read-out: IZ
Escherichia coli [6] = assay: Antimicrobial activity against Escherichia coli at 100 ug/disk after 10 hrs by disc-diffusion assay; type: functional; settings: read-out: IZ
[7] = system: Staphylococcus epidermidis; assay: Antimicrobial activity against Staphylococcus epidermidis ATCC 12228 at 30 ug in 6 mm disk after 10 hrs by disc-diffusion assay; type: functional; settings: ATCC 12228, 10 h, read-out: IZ
Candida albicans [8] = assay: Antifungal activity against Candida albicans ATCC 12983 at 30 ug in 6 mm disk after 10 hrs by disc-diffusion assay; type: functional; settings: ATCC 12983, 10 h, read-out: IZ
Candida parapsilosis [9] = assay: Antifungal activity against Candida parapsilosis ATCC 12969 at 30 ug in 6 mm disk after 10 hrs by disc-diffusion assay; type: functional; settings: Lodderomyces parapsilosis, ATCC 12969, 10 h; read-out: IZ
Candida tropicalis [10] = assay: Antifungal activity against Candida tropicalis ATCC 12968 at 30 ug in 6 mm disk after 10 hrs by disc-diffusion assay; type: functional; settings: ATCC 12968, 10 h, read-out: IZ
Pichia kudriavzevii [11] = assay: Antifungal activity against Candida krusei ATCC 27803 at 30 ug in 6 mm disk after 10 hrs by disc-diffusion assay; type: functional; settings: ATCC 27803, 10 h, read-out: IZ
Staphylococcus aureus [12] = assay: Antimicrobial activity against Staphylococcus aureus ATCC 700787 at 15 ug in 6 mm disk after 10 hrs by disc-diffusion assay; type: functional, organism-based
[13] = system: Staphylococcus epidermidis; assay: Antimicrobial activity against Staphylococcus epidermidis ATCC 12228 at 15 ug in 6 mm disk after 10 hrs by disc-diffusion assay; type: functional, organism-based
Burkholderia cepacia = assay: Antimicrobial activity against Burkholderia cepacia ATCC 25608 at 15 ug in 6 mm disk after 10 hrs by disc-diffusion assay; type: functional, organism-based
Klebsiella pneumoniae = assay: Antimicrobial activity against Klebsiella pneumoniae ATCC 33495 at 15 ug in 6 mm disk after 10 hrs by disc-diffusion assay; type: functional, organism-based
Acinetobacter baumannii = assay: Antimicrobial activity against Acinetobacter baumannii ATCC 19606 at 15 ug in 6 mm disk after 10 hrs by disc-diffusion assay; type: functional, organism-based
Pseudomonas aeruginosa = assay: Antimicrobial activity against Pseudomonas aeruginosa ATCC 10145 at 15 ug in 6 mm disk after 10 hrs by disc-diffusion assay; type: functional, organism-based
Escherichia coli [14] = assay: Antimicrobial activity against Escherichia coli ATCC 11775 at 15 ug in 6 mm disk after 10 hrs by disc-diffusion assay; type: functional, organism-based
Enterobacter cloacae = assay: Antimicrobial activity against Enterobacter cloacae ATCC 13047 at 15 ug in 6 mm disk after 10 hrs by disc-diffusion assay; type: functional, organism-based

CC(=O)N1CCN(c2ccc(OCC3COC(Cn4ccnc4)(c4ccc(Cl)cc4Cl)O3)cc2)CC1 (stereo not drawn) [KETOCONAZOLE]
zone of inhibition at 15 µg/disc (Candida albicans [1]): 15 mm | zone of inhibition at 15 µg/disc (Candida parapsilosis [2]): 15 mm | zone of inhibition at 15 µg/disc (Nakaseomyces glabratus): 15 mm | zone of inhibition at 15 µg/disc (Candida tropicalis [3]): 15 mm | zone of inhibition at 15 µg/disc (Pichia kudriavzevii [4]): 15 mm

C/C=C(/C(=O)O)N1C(=O)C=C(C)C1=O [PENCOLIDE]
zone of inhibition at 100 µg/disc (Streptococcus pyogenes): 13 mm | zone of inhibition at 100 µg/disc (Staphylococcus aureus [5]): 13 mm | zone of inhibition at 100 µg/disc (Salmonella enterica): 13 mm | zone of inhibition at 100 µg/disc (Escherichia coli [6]): 13 mm

CC[C@H](C)/C=C(C)/C=C/C1=CC2=C(Cl)C(=O)[C@](C)(OC(C)=O)C(=O)C2=CN1 [SCLEROTIORAMINE]
zone of inhibition at 30 µg/disc [7]: 8 mm | zone of inhibition at 30 µg/disc (Candida albicans [8]): 8 mm | zone of inhibition at 30 µg/disc (Candida parapsilosis [9]): 7 mm | zone of inhibition at 30 µg/disc (Candida tropicalis [10]): 8 mm | zone of inhibition at 30 µg/disc (Pichia kudriavzevii [11]): 8 mm

CC[C@H](C)/C=C(C)/C=C/C1=CC2=C(Cl)C(=O)[C@](C)(OC(C)=O)C(=O)C2=CO1 [SCLEROTIORIN]
zone of inhibition at 30 µg/disc [7]: 8 mm

GENTAMICIN
inhibition zone (IZ) (Staphylococcus aureus [12]): 8 mm | inhibition zone (IZ) [13]: 8 mm | inhibition zone (IZ) (Burkholderia cepacia): 8 mm | inhibition zone (IZ) (Klebsiella pneumoniae): 8 mm | inhibition zone (IZ) (Acinetobacter baumannii): 8 mm | inhibition zone (IZ) (Pseudomonas aeruginosa): 8 mm | inhibition zone (IZ) (Escherichia coli [14]): 8 mm | inhibition zone (IZ) (Enterobacter cloacae): 8 mm
